Laboratory results from PubChem BioAssay (NCI).
Several values for one entry are separate records, joined by “and”; a condition that tells them apart may be missing. Equal values may be shown once.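 Following 48 hours of exposure in 96-well plates, responses at five concentrations were used to interpolate endpoints linearly. At the GI50, growth is halved. Definition used: TGI = concentration required for complete inhibition of growth.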

Tests used:
Experiment in all cases: growth of human tumour cells (NCI), 48 h
ACHN renal = tested on: ACHN renal
CAKI-1 renal = tested on: CAKI-1 renal
LOX IMVI melanoma = tested on: LOX IMVI melanoma
MOLT-4 leukemia = tested on: MOLT-4 leukemia
NCI-H226 lung = tested on: NCI-H226 lung
OVCAR-3 ovarian = tested on: OVCAR-3 ovarian
SF-295 CNS = tested on: SF-295 CNS
SK-MEL-2 melanoma = tested on: SK-MEL-2 melanoma
T-47D breast = tested on: T-47D breast
UO-31 renal = tested on: UO-31 renal

| SMILES | GI50 (ACHN renal) [µM] | TGI (ACHN renal) [µM] | GI50 (CAKI-1 renal) [µM] | TGI (CAKI-1 renal) [µM] | GI50 (LOX IMVI melanoma) [µM] | TGI (LOX IMVI melanoma) [µM] | GI50 (MOLT-4 leukemia) | TGI (MOLT-4 leukemia) [µM] | GI50 (NCI-H226 lung) [µM] | TGI (NCI-H226 lung) [µM] | GI50 (OVCAR-3 ovarian) [µM] | TGI (OVCAR-3 ovarian) [µM] | GI50 (SF-295 CNS) [µM] | TGI (SF-295 CNS) [µM] | GI50 (SK-MEL-2 melanoma) | TGI (SK-MEL-2 melanoma) [µM] | GI50 (T-47D breast) [µM] | TGI (T-47D breast) [µM] | GI50 (UO-31 renal) [µM] | TGI (UO-31 renal) [µM] |
| --- | --- | --- | --- | --- | --- | --- | --- | --- | --- | --- | --- | --- | --- | --- | --- | --- | --- | --- | --- | --- |
| COc1c(O)c2c3c(c1OC)-c1ccccc1CC3N(S(=O)(=O)c1ccc(C)cc1)CC2 (centres undefined) | 2.91 | > 50 | 2.12 | > 50 | 2.59 | > 50 | 2.14 µM | 10.9 | 11.4 | > 50 | 1.18 | 2.68 | 2.07 | 30.6 | 1.47 µM | 3.88 | 1.56 | 27.9 | 2.02 | > 50 |
| CCCCCCCCCCCCOC1C(C(CC(=O)N2CCN(Cc3ccc4c(c3)OCO4)CC2)NS(=O)(=O)c2cc(Cl)cc(Cl)c2)OC2OC(C)(C)OC21 (centres undefined) | 33.8 | > 100 | > 100 | > 100 | 16 | > 65.9 | 5.03 µM | > 100 | 43.5 | > 100 | 20.3 | > 100 | 26.3 | > 100 | 47.9 µM | > 100 | 28.9 | > 100 | 32.9 | > 100 |
| CCOc1ccc(Nc2nc(-c3c(C)nc4ncccn34)cs2)cc1 | 0.0767 | 19.5 | 0.0144 | 15.8 | 0.0382 | 17.2 | 0.0539 µM | 20.4 | 2.81 | 22.6 | < 0.01 | 14.6 | < 0.01 | 15.3 | 0.0389 µM | 21.7 | 1.04 | 17.1 | 0.0537 | 18.6 |
| CN(C)c1ccc(C2CC(C)(O)Oc3cc4c(cc32)OCO4)cc1 (centres undefined) |  | > 100 |  | > 100 |  | > 100 |  | > 100 |  | > 100 |  | > 100 |  | > 100 |  | 63.8 |  | > 100 |  | 93.1 |
| CNCc1ccc(-c2[nH]c3cc(F)cc4c3c2CCNC4=O)cc1 | 18.7 | > 58.2 | 16.7 | 60 | 12.9 | 29.2 | 21.9 µM | 68 | 15.6 | 43.4 | 19.9 | 47.2 | 18.8 | 45.7 | 20.9 µM | 39.3 | 16.8 | 55 | 22.2 | 76.2 |
| C=C(Cn1c2ccccc2c(=O)c2ccccc21)c1ccc(C(=O)Nc2ccccc2N)cc1 | > 100 | > 100 | > 26 | > 100 | 50.4 | > 100 | 0.767 µM | > 26 | > 24.8 | > 100 | 6.5 | > 100 | > 81.5 | > 100 | > 100 µM | > 100 | 2.8 | > 80 | 2.64 | > 100 |
| COC(=O)c1ccc2[nH]c(O)c(C(=Nc3ccc(N(C)C(=O)CN4CCN(C)CC4)cc3)c3ccccc3)c2c1 | 1.13 | 4.12 | 0.21 | 1.25 | 0.552 | 1.92 | 0.389 µM | 4.56 | 0.993 | 4.99 | 1.41 | 3.23 | 6.34 | 21 | 1.17 µM | 3.54 | 11.9 | 33.4 | 1.24 | 3.86 |
| CC1=C2[C@@H](CC1)[C@]1(C)O[C@@](C3CC3)(C[C@H]1OC(=O)CO)[C@H]2OC(=O)/C=C/c1ccccc1 | 0.0339 | 13.2 | 10.9 | 24 | 15.1 | 31.8 | 15.1 µM | 36.9 | 16.2 | 36.5 | 15.3 | 29.2 | 16.1 | 30.1 | 18.1 µM | 36.1 | 12.1 | 36.6 | 0.636 | 20.8 |
| COc1cc(OC)cc(-c2ccc(-c3ccc(C(=N)N)cn3)s2)c1 | 1.81 | 3.2 | 1.73 | 3.2 | 1.7 | 3.2 | 2.55 µM | 6.39 | 10.1 | 27.8 | 1.77 | 3.2 | 1.79 | 3.39 | 19.5 µM | 40.3 | 2.1 | 5.09 | 1.65 | 3.31 |
| C#Cc1cccc(NC(=O)C2CCCN(C(=O)CCl)C2)c1 (centres undefined) | 16.1 | 31.6 | > 82.5 | > 82.5 | 14.4 | 28.7 | 23.4 µM | 75.1 | > 82.5 | > 82.5 | > 82.5 | > 82.5 | > 82.5 | > 82.5 | > 82.5 µM | > 82.5 | > 82.5 | > 82.5 | 12.9 | 26.4 |
| CNCc1cccc2c1OCCOCCOCCC(C)S(=O)(=O)c1ccc(cc1)-c1cnc(N)c(n1)C(=O)N2 (centres undefined) | 1.3 | 2.82 | 0.365 | 2.22 | 1.81 | 5.41 | 1.3 µM | 10.3 | 1.98 | 5.46 | 1.16 | 2.59 | 2.84 | 9.07 | 2.37 µM | 6.36 | 3.62 | 18.7 | 0.623 | 2.09 |
| O=c1nc2[nH]c3c(-c4n[nH]c(=O)[nH]c4=O)cccc3c2n[nH]1 | > 100 | > 100 | > 100 | > 100 | > 100 | > 100 | > 100 µM | > 100 | > 100 | > 100 | > 100 | > 100 | > 100 | > 100 | > 100 µM | > 100 | > 100 | > 100 | > 100 | > 100 |
| COc1ccc(/C(C)=C(\c2ccc(Cl)cc2)c2ccc(OCCN3CCCCCC3)cc2)cc1F | 5.19 | > 16.7 | 3.37 | 7.7 | 2.51 | 4.82 | 3.91 µM | 11.8 | 5.47 | > 16.7 | 2.98 | 5.89 | 2.69 | 5.61 | 5.23 µM | 16.3 | 3.47 | 15.1 | 2.17 | 4.47 |
| Cc1ccc(S(=O)(=O)N2CCC(C(=O)O)(c3ccccc3)CC2)cc1 |  | > 100 |  | > 100 |  | > 100 |  | > 100 |  | > 100 |  | > 100 |  | > 100 |  | > 100 |  | > 100 |  | > 100 |
| CC1(C)CC[C@]2(C(=O)O)CC[C@]3(C)C(=CC[C@@H]4[C@@]5(C)C/C(=C/c6ccco6)C(=O)C(C)(C)[C@@H]5CC[C@]43C)[C@@H]2C1 | 2.89 | 11.1 | 2.72 | 15.7 | 2.46 | 6.77 | 1.04 µM | > 100 | 3.42 | 19.5 | 2.9 | 9.61 | 3.22 | 18.1 | 2.99 µM | 11.4 | 3.23 | 48.4 | 2.39 | 11.6 |
| COc1cccc(C2C(C#N)=C(N)Oc3cc4c(cc32)OCO4)c1 (centres undefined) | 2.26 | > 100 | 0.0409 | 42.6 | 0.234 | 17.2 | 0.0745 µM | 22.6 | 0.0455 | 2.43 | 0.0264 | 0.0661 | 0.035 | 22 | 0.0301 µM | 6.77 | 0.0502 | 28 | 0.169 | > 100 |
| O=C1CCS/C(=N/S(=O)(=O)c2ccc(N3N=C4c5ccccc5CC4C3c3cccs3)cc2)N1Cc1ccccc1 (centres undefined) | 14.9 | 32.9 | 24 | 54.3 | 13.6 | 27.2 | 47 µM | > 100 | 26.5 | 59.3 | 25.9 | 60.8 | 15.8 | 37.5 | 28 µM | > 100 | 45.6 | > 100 | 28.3 | > 100 |
| Cc1ccnc(Nc2ccc([N+](=O)[O-])c(NCCN3CCOCC3)n2)c1 | 0.00744 | 40.8 | 0.0052 | > 100 | 0.0052 | 27.9 | 0.0304 µM and 0.0356 µM | > 100 | 0.0594 |  | 0.00266 | 0.0078 | 0.00355 | 29.6 | 0.00566 µM and 0.0304 µM | 27.2 | 26.1 | 74.9 | 0.0461 | 30.7 |
| N/C(=N\C(N)=N\c1nc2ccccc2s1)c1cnccn1 | 2.51 | 6.6 | 2.14 | 5.06 | 3.47 | > 100 | 3.48 µM | > 100 | 2.45 | 6.34 | 2.79 | 7.86 | 3.19 | 22.6 | 1.95 µM | 4.63 | 2.24 | 6.22 | 2.05 | 4.87 |
